Test results published in patent US20260297121A1, “MITHRAMYCIN (MTM) 2’ OXIMES” (University of Kentucky Research Foundation, priority 2023, published 2026).
Where two headings read alike, the source gives them in different places.

What was measured:
TC32 = assay: Cytotoxicity, resazurin fluorescence, TC32; assay type: cell-based
Experimental: (§1) Exemplary compounds of the presently-disclosed subject matter were assessed for cytotoxicity (Table 5) in Ewing sarcoma (TC32) and non-Ewing (PC3 prostate cancer). […] Cells (1000-5000/well) were seeded in 96-well plates and allowed to attach and grow for 24 hr prior to adding compounds in half-log increments from 0.3 nM-10 μM. Cell viability was assessed after 72 hr continuous incubation with compounds using resazurin fluorescence. GI50 values were estimated using GraphPad Prism.

PC3 [1] = assay: Cytotoxicity, resazurin fluorescence, PC3; assay type: cell-based
Experimental: as §1

TC71 = assay: Cytotoxicity, resazurin fluorescence, TC71; assay type: cell-based; conditions: Table 6, 72 hr, EWS cells
5838 = assay: Cytotoxicity, resazurin fluorescence, 5838; assay type: cell-based; conditions: Table 6; 72 hr; express EWS-ERG
A673 = assay: Cytotoxicity, resazurin fluorescence, A673; assay type: cell-based; conditions: Table 6, 72 hr, EWS cells
RDES = assay: Cytotoxicity, resazurin fluorescence, RDES; assay type: cell-based; conditions: Table 6, 72 hr, EWS cells
SK.ES1 = assay: Cytotoxicity, resazurin fluorescence, SK.ES1; assay type: cell-based; conditions: Table 6, 72 hr, EWS cells
ES3 = assay: Cytotoxicity, resazurin fluorescence, ES3; assay type: cell-based; conditions: Table 6; 72 hr; EWS cells
ES4 = assay: Cytotoxicity, resazurin fluorescence, ES4; assay type: cell-based; conditions: Table 6; 72 hr; EWS cells
ES7 = assay: Cytotoxicity, resazurin fluorescence, ES7; assay type: cell-based; conditions: Table 6, 72 hr, EWS cells
ES8 = assay: Cytotoxicity, resazurin fluorescence, ES8; assay type: cell-based; conditions: Table 6, 72 hr, EWS cells
EWS cells = assay: Cytotoxicity, average over Ewing (EWS) cell panel; assay type: cell-based; conditions: Table 6; 72 hr; average of EWS cells
Experimental: as §1

BL1395 = assay: Cytotoxicity, resazurin fluorescence, BL1395; assay type: cell-based; conditions: read-out: GI50 BL1395
A549 = assay: Cytotoxicity, resazurin fluorescence, A549; assay type: cell-based; conditions: read-out: GI50 A549
DU145 = assay: Cytotoxicity, resazurin fluorescence, DU145; assay type: cell-based; conditions: read-out: GI50 DU145
H460 = assay: Cytotoxicity, resazurin fluorescence, H460; assay type: cell-based; conditions: read-out: GI50 H460
Hela = assay: Cytotoxicity, resazurin fluorescence, Hela; assay type: cell-based; conditions: read-out: GI50 Hela
HepG2 = assay: Cytotoxicity, resazurin fluorescence, HepG2; assay type: cell-based; conditions: read-out: GI50 HepG2
LNCap = assay: Cytotoxicity, resazurin fluorescence, LNCap; assay type: cell-based; conditions: read-out: GI50 LNCap
PANC1 = assay: Cytotoxicity, resazurin fluorescence, PANC1; assay type: cell-based; conditions: read-out: GI50 PANC1
Non EWS cells = assay: Cytotoxicity, average over non-Ewing cell panel; assay type: cell-based; conditions: read-out: GI50 Average, Non EWS cells
Experimental: as §1

EWS-FLI1 = conditions: screen of more than 50,000 natural products and synthetic compounds; cited from earlier work
[2] = cited from earlier work
log P = assay type: physicochemical; conditions: Table 2
TC32 cells = assay: Potency IC50 in TC32 cells and selectivity; assay type: cell-based; conditions: Homo sapiens, TC-32, Table 2, read-out: IC50 TC32
PC3 [3] = assay: IC50 in PC3 cells; assay type: cell-based; conditions: Homo sapiens, PC-3, read-out: IC50 PC2, Table 2; head prints PC2, text PC3
HS68 = assay: Cytotoxicity, 72 hr resazurin assay, HS68 fibroblast; assay type: cell-based
From the text: (§2) A fibroblast cell line (HS68 (FIG. 2E)) was used as a non-tumor control. The area under the concentration-efficacy curve (AUC; possible range of 0-20000) was used to estimate an alternate metric to GI50 for cases of shallow efficacy (e.g., the limited effect in HS68 cells).

JR1 = assay: Cytotoxicity, 72 hr resazurin assay, JR1 embryonal rhabdomyosarcoma; assay type: cell-based
From the text: as §2

RD = assay: Cytotoxicity, 72 hr resazurin assay, RD embryonal rhabdomyosarcoma; assay type: cell-based
From the text: as §2

RH30 = assay: Cytotoxicity, 72 hr resazurin assay, RH30 alveolar rhabdomyosarcoma; assay type: cell-based
From the text: as §2

RH41 = assay: Cytotoxicity, 72 hr resazurin assay, RH41 alveolar rhabdomyosarcoma; assay type: cell-based
From the text: as §2

rhabdomyosarcoma cells = assay: Cytotoxicity, 72 hr resazurin assay, four rhabdomyosarcoma cell lines; assay type: cell-based; conditions: JR1, RD, RH30, RH41, read-out: GI50 range in the four cell lines tested
From the text: as §2

[4] = area under concentration-efficacy curve, possible range 0-20000

mithramycin A [MTM, reference compound]
GI50 (TC32; Table 5, 72 hr, read-out: GI50 TC32): 10 nM
GI50 (TC32; Table 6, 72 hr, EWS cells, read-out: GI50 TC32): 10.4 nM
GI50 (PC3 [1]; Table 5, 72 hr, read-out: GI50 PC3): 11 nM
GI50 (PC3 [1]; Table 6, 72 hr, non EWS cells, read-out: GI50 PC3): 11.3 nM
GI50 (TC71): 10.3 nM
GI50 5838: 11.2 nM
GI50 (A673): 9.1 nM
GI50 (RDES): 10.6 nM
GI50 (SK.ES1): 10.2 nM
GI50 (ES3): 12.8 nM
GI50 (ES4): 7.3 nM
GI50 (ES7): 10 nM
GI50 (ES8): 17.4 nM
GI50 (EWS cells): 10.9 nM
GI50 (BL1395; Table 6, 72 hr, lymphocyte origin): 9.9 nM
GI50 (A549; Table 6, 72 hr, non EWS cells): 54 nM
GI50 (DU145; Table 6, 72 hr, non EWS cells): 16.4 nM
GI50 (H460; Table 6, 72 hr, non EWS cells): 6.8 nM
GI50 (Hela; Table 6, 72 hr, non EWS cells): 28.4 nM
GI50 (HepG2; Table 6, 72 hr, hepatic origin): 28.4 nM
GI50 (LNCap; Table 6, 72 hr, non EWS cells): 82.7 nM
GI50 (PANC1; Table 6, 72 hr, non EWS cells): 22.3 nM
GI50 (Non EWS cells; Table 6, 72 hr, average of non EWS cells): 28.9 nM
inhibition of EWS-FLI1 (EWS-FLI1): top inhibitor
clinical trial outcome ([2]; NCI clinical study, Ewing sarcoma patients): terminated early, due to toxicities
therapeutic index ([2]; clinical evaluation, 1960s and 70s): narrow therapeutic index

COC(C(=NOCCNC(=O)c1[nH]c2ccc(Cl)cc2c1-c1c(C)noc1C)C(O)C(C)O)C1Cc2cc3cc(OC4CC(OC5CC(O)C(O)C(C)O5)C(O)C(C)O4)c(C)c(O)c3c(O)c2C(=O)C1OC1CC(OC2CC(OC3CC(C)(O)C(O)C(C)O3)C(O)C(C)O2)C(O)C(C)O1 (stereo not drawn) [YL-C110]
logP (log P): 2.56
IC50 (TC32 cells): 2.18 nM
IC50 (PC3 [3]): 7.1 nM
GI50 (TC32; Homo sapiens, TC-32, 72 h, read-out: GI50 TC32, Table 5): 14 nM
GI50 (TC32; Homo sapiens, TC-32, 72 h, read-out: GI50 TC32, Table 6, EWS cells): 14.3 nM
GI50 (PC3 [1]; Homo sapiens, PC-3, 72 h, read-out: GI50 PC3, Table 5): 27 nM
GI50 (PC3 [1]; Homo sapiens, PC-3, 72 h, read-out: GI50 PC3, Table 6, non EWS cells): 26.8 nM
GI50 (TC71; Homo sapiens, TC-71): 10.7 nM
GI50 5838: 26.6 nM
GI50 (A673; Homo sapiens, A673): 33.5 nM
GI50 (RDES; RD-ES): 13.3 nM
GI50 (SK.ES1; Homo sapiens, SK-ES1): 18.8 nM
GI50 (ES3): 18.8 nM
GI50 (ES4): 10.1 nM
GI50 (ES7; Homo sapiens, ES7): 13.6 nM
GI50 (ES8; Homo sapiens, ES8): 16.6 nM
GI50 (EWS cells): 17.6 nM
GI50 (BL1395; Lymphocyte, 72 h): 49.4 nM
GI50 (A549; Homo sapiens, A549, 72 h): 46.7 nM
GI50 (DU145; Homo sapiens, DU-145, 72 h): 16.2 nM
GI50 (H460; Homo sapiens, NCI-H460, 72 h): 33.2 nM
GI50 (Hela; Homo sapiens, HeLa, 72 h): 102 nM
GI50 (HepG2; Homo sapiens, HepG2, 72 h): 466 nM
GI50 (LNCap; Homo sapiens, LNCaP, 72 h): 44.3 nM
GI50 (PANC1; Homo sapiens, PANC-1, 72 h): 87.5 nM
GI50 (Non EWS cells; 72 h): 96.9 nM
GI50 (HS68; Homo sapiens, Hs68, fibroblast, non-tumor control): 33.6 nM
AUC HS68 (HS68; [4]): 16245
AUC JR1 (JR1; [4]): 8535
GI50 (JR1; embryonal): 14.9 nM
GI50 (RD; Homo sapiens, RD, embryonal): 22.4 nM
AUC RD (RD; [4]): 8367
GI50 (RH30; Rh30, alveolar): 21 nM
AUC RH30 (RH30; [4]): 7413
GI50 (RH41; Homo sapiens, Rh41, alveolar): 24.7 nM
AUC RH41 (RH41; [4]): 9477
GI50 (rhabdomyosarcoma cells): 15 to 25 nM
